Measured values reported in patent publication US20230226048A1, “NEW USE OF RABEXIMOD” (Cyxone AB, priority 2020, published 2023).

Experiments:
[1] = system: T cell proliferation; assay: ConA-stimulated proliferation of lymph node cells from DA rats immunized with rat collagen II, [3H]-thymidine; type: cell-based; conditions: ConA 1.5 μg/ml, 48 h
Method: draining lymph nodes collected day 9 p.i. from DA rats immunized with rat collagen II (RCII) in Freund's Incomplete Adjuvant (FIA) were used to prepare individual single cell suspensions. Lymph nodes were grinded through wire mesh and cells washed 3 times in incomplete DMEM cell culture medium. Cells were counted by trypan blue exclusion and cell suspensions of 2×10^6 cells/ml in complete DMEM prepared. 4×10^5 cells per well were seeded in flat-bottomed 96-well microtiter plates. Triplicates of each individual cell suspension were incubated with 1.5 μg/ml ConA. ConA was diluted in phosphate buffered saline, D-PBS. Spontaneous proliferation was determined by measuring proliferation in cell cultures without addition of ConA. As a positive proliferation control cells were stimulated with ConA together with 10 μl of the rabeximod vehicle, 0.01 M acetic acid. Doses of rabeximod were added in 10 μl vehicle so that the final concentrations in cell cultures ranged from 50-800 ng/ml. Cell cultures were incubated at 37° C.+5% CO2 for 48 h and 1 μCi of [^3H]-Thymidine per well was added to the cultures for the last 12 h. Cellular incorporation of [^3H]-thymidine was measured using a 1450 Microbeta Wallac Trilux Liquid Scintillation Luminescence Counter after harvesting the cells onto nitrocellulose filters.
Individual Inhibition Indices (1.1.) were calculated by dividing the average counts per minute (cpm) value of each triplicate stimulated with ConA and rabeximod with the average cpm value of the triplicate stimulated with ConA only. The inhibition of proliferation induced by rabeximod addition was expressed as % of the positive control (ConA only), i.e. by multiplying the inhibition indices with 100.

[2] = cited from earlier work
[3] = system: collagen-induced arthritis model; conditions: dark agouti rats, daily subcutaneous administration from the day of immunization; cited from earlier work
[4] = system: IL-6; assay: Phase IIa clinical trial in rheumatoid arthritis patients, IL-6 assessment (PK/PD population); type: in vivo, human; conditions: RA patients
Method: In a phase IIa clinical trial, a total of 225 patients diagnosed with active rheumatoid arthritis were randomized to receive one of the following treatments: • 6.25 mg of Rabeximod (daily) • 15 mg of Rabeximod (daily) • 37.5 mg of Rabeximod (daily) • Placebo
Study drug was provided in the form of a capsule comprising rabeximod in the form of a (micronized) powder. Over 200 patients completed the study.
The primary aim of the study was to evaluate the safety and efficacy of
Rabeximod treatment in RA patients. The study also involved Pharmacokinetic and Pharmacodynamic assessments in a subgroup (PK/PD Population) of 36 patients. This included assessment of changes in hsCRP, TNF-α, IL-6, COMP and anti-CCP.

[5] = system: wild type and TLR4 deficient mice; assay: Collagen antibody-induced arthritis (CAIA) boosted with TLR stimuli in mice, arthritis scoring; type: in vivo, mouse; conditions: for arthritis severity: 40 mg/kg subcutaneously every second day, day 5 to 15
From the text: QB mice (10-20 weeks) were generated from a (BALB/cxB10.Q) F1 cross. C57BL/10ScNJ mice (Tlr4^lps-del), hereafter called Tlr4^del, were ordered from The Jackson Laboratory (The Jackson Laboratory, Bar Harbor, Me., USA). These mice have deletion of the Tlr4 gene that results in absence of mRNA and protein and is thus defective in response to LPS stimulation. These mice were crossed together with C57BL/10.Q mice from Medical Inflammation Research, Lund university, Lund, Sweden in order to generate mice expressing major histocompatibility complex (MHC) Aq. Mice were kept and bred in a climate-controlled environment with a 12 h light/dark cycle, fed standard rodent chow and water ad libitum in the animal facility of Medical Inflammation Research, Lund University, Lund, Sweden.
Litters were genotyped for MHC using microsatellite marker D17mit230. Genotyping of Tlr4 was performed according to an earlier described method. Briefly, DNA was prepared from biopsies and primers flanking the 70 kb deletion or amplifying the wild-type sequence absent in the TLR4 deleted mice were used.
The mice were matched according to age and sex, and littermates were used in all experiments. All experiments were approved according to Malmö/Lund ethical committee license M107-07.
Male mice, older than 8 weeks, were injected intravenously on day 0 with a cocktail of four monoclonal antibodies (4 mg in a total volume of 310 μl/mouse) containing M2139, CIIC1, CIIC2 and UL1 antibodies binding to J1, C1^I, D3 and U1 epitopes of CII in order to induce CAIA. Day 5 mice were injected with LPS from Escherichia coli (Sigma-Aldrich, St Louis, Mis-souri, USA), deoxycytoylate-phosphate-deoxyguanylate (CpG) DNA (sequence 1668, MWG; Eurofins MWG, Erdersberg, Germany) or lipomannan (LM) from Mycobacterium segma-tis (InvivoGen, San Diego, Calif., USA) intraperitoneally to boost disease (35-50 μg/mouse in 1 ml phosphate-buffered saline (PBS)).
Mice were blindly scored daily to every second day until the end of the experiment. […]

[6] = system: murine arthritis model; conditions: murine arthritis model in mice; cited from earlier work

Cc1cc2nc3c4cc(Cl)ccc4n(CC(=O)NCCN(C)C)c3nc2cc1C [Rabeximod, 9-Chloro-2,3-dimethyl-6-(N,N-dimethylaminoethylamino-2-oxoethyl)-6H-indolo-[2,3-b]quinoxaline]
inhibition of T cell proliferation ([1]; 300 ng/ml): Approximately 50%
inhibition of T cell proliferation ([1]; 500 ng/ml): approximately 80%
inhibition at 0.3 µg/mL ([1]; Rattus norvegicus, T-cell, 300 ng/ml): ≥ 50%
inhibition at 0.5 µg/mL ([1]; Rattus norvegicus, T-cell, 500 ng/ml): ≥ 80%
fraction in plasma bound to protein [2]: approximately 99%
arthritis severity [3]: suppressed
onset of clinical arthritis [3]: significantly delayed
change in IL-6 median value from baseline ([4]; 6.25 mg daily, Week 12): −185.0 IU/L
change in IL-6 median value from baseline ([4]; 6.25 mg daily, Week 16): −804 IU/L
change in IL-6 median value from baseline ([4]; 15 mg daily, Week 12): −1679.0 IU/L
change in IL-6 median value from baseline ([4]; 15 mg daily, Week 16): −1879 IU/L
change in IL-6 median value from baseline ([4]; 37.5 mg daily, Week 12): 136.0 IU/L
change in IL-6 median value from baseline ([4]; 37.5 mg daily, Week 16): −1124 IU/L
arthritis severity ([5]; TLR4 deficient mice): reduces
activation of macrophages in animal models of arthritis ([5]; downstream mechanism, likely TLR2 signalling pathway): inhibits
arthritis severity ([5]; wild type mice): reduces
arthritogenic scoring [6]: statistically significant durable reductions
paw swelling [6]: statistically significant durable reductions
paw thickness [6]: statistically significant durable reductions
